According to US20240059693A1, “FUSED BICYCLIC PYRAZOLE DERIVATIVES AND METHODS OF USE THEREOF FOR THE TREATMENT OF HERPESVIRUSES” (Merck Sharp & Dohme LLC, priority 2020, published 2024):
Where two headings read alike, the source gives them in different places.

What was measured:
HSV-1 Strain F = experiment: Viral qPCR assay, HSV-1 in MRC5 cells; type: cell-based, Herpes Simplex Virus type 1; settings: read-out: HSV1 MRC5 Cell (EC50)
Experimental: (§1) MRCS cells, Vero cells, and MeWo cells were obtained from ATCC and were maintained at 37° C./5% CO2/90% relative humidity in Minimal Essential Medium with 10% fetal bovine serum, […] L-glutamine, 100 units/ml penicillin and 100 ug/ml streptomycin. Assay plates were prepared by dispensing compounds dissolved in DMSO into wells of 384 well collagen-coated plates using an ECHO acoustic dispenser. Each compound was tested in a 10-point, serial 3-fold dilution. Controls included uninfected cells and infected cells treated only with DMSO. Assays were initiated by mixing selected cells, in suspension, with virus, and dispensing 50 μl/well infected cells to pre-plated compounds. Plates were incubated at 37° C./5% CO2/90% relative humidity for ˜72 hrs to permit genomic replication, and infected cells were lysed by the addition of an equal volume of lysis buffer (10 mM Tris-HCl, pH8, 50 mM KCl, 2 mM MgCl2, 0.45% NP-40, 0.45% Tween-20, and 100 μg/ml proteinase K). An aliquot of the lysate was transferred to a 384-well PCR plate and incubated at 56° C. for 1 hour and then at 95° C. for 10 min. Levels of a viral gene and of the cellular control, PPIA (Thermo Fisher Assay ID=Hs04194521_s1), were measured in separate 10 μL qPCR assays using TaqMan® Gene Expression Master Mix (Applied Biosystems), and an 7900HT Fast Real-Time PCR System with 384-Well Block Module. 7-point, serial 10-fold dilutions of a plasmid standard were run on each plate to generate a standard curve, and genome copies numbers were calculated by plotting experimental Ct onto linear regression of the standard curve. Viral genome copy numbers were normalized by cellular control copy number, and compound effects were normalized to the window defined by the controls. Calculated % effects were fit using a 4-parameter algorithm, and EC50 was reported.
as §1, with “gene” for “gene and of the cellular control, PPIA (Thermo Fisher Assay ID=Hs04194521_s1),”, “in” for “in separate”, “Compound effects on viral” for “Viral”, “number” for “numbers were normalized by cellular control copy number, and compound effects”
(§2) VZV: Strain Street was maintained as an infected cell stock in MRC-5 cells. It was assayed in MeWo or MRCS cells and was used at 0.04-0.1 pfu/cell. The assays were performed in growth medium. Primer-probe set was Thermo Fisher Assay ID=AIPAEXQ. HSV-1: Strain F Street was assayed in Vero or MRCS cells and was used at 0.0005-0.004 pfu/cell in growth medium. Primer-probe set was Thermo Fisher Assay ID=AIBJZIB

VZV = experiment: Viral qPCR assay, VZV in MRC5 cells; type: cell-based, varicella zoster virus; settings: read-out: VZV MRC5 Cell (IC50)
Experimental: as §1
as §1, with “gene” for “gene and of the cellular control, PPIA (Thermo Fisher Assay ID=Hs04194521_s1),”, “in” for “in separate”, “Compound effects on viral” for “Viral”, “number” for “numbers were normalized by cellular control copy number, and compound effects”
as §2

HSV2 = experiment: Viral qPCR assay, HSV2 in MRC5 cells; type: cell-based, Herpes Simplex Virus type 2; settings: read-out: HSV2 MRC5 Cell (EC50)
Experimental: as §1
as §1, with “gene” for “gene and of the cellular control, PPIA (Thermo Fisher Assay ID=Hs04194521_s1),”, “in” for “in separate”, “Compound effects on viral” for “Viral”, “number” for “numbers were normalized by cellular control copy number, and compound effects”

[1] = target: T1, Human cytomegalovirus DNA polymerase (Human cytomegalovirus, UniProt P08546); experiment: HCMV polymerase assay (AlphaLISA); type: biochemical; settings: HCMV DNA polymerase 0.2 nM, 60 minutes at 37° C.; read-out: CMV (IC50)
T1 construct: made in house; host or cells: SF21 insect cells (baculovirus vector)
T1 sequence (P08546 whole entry): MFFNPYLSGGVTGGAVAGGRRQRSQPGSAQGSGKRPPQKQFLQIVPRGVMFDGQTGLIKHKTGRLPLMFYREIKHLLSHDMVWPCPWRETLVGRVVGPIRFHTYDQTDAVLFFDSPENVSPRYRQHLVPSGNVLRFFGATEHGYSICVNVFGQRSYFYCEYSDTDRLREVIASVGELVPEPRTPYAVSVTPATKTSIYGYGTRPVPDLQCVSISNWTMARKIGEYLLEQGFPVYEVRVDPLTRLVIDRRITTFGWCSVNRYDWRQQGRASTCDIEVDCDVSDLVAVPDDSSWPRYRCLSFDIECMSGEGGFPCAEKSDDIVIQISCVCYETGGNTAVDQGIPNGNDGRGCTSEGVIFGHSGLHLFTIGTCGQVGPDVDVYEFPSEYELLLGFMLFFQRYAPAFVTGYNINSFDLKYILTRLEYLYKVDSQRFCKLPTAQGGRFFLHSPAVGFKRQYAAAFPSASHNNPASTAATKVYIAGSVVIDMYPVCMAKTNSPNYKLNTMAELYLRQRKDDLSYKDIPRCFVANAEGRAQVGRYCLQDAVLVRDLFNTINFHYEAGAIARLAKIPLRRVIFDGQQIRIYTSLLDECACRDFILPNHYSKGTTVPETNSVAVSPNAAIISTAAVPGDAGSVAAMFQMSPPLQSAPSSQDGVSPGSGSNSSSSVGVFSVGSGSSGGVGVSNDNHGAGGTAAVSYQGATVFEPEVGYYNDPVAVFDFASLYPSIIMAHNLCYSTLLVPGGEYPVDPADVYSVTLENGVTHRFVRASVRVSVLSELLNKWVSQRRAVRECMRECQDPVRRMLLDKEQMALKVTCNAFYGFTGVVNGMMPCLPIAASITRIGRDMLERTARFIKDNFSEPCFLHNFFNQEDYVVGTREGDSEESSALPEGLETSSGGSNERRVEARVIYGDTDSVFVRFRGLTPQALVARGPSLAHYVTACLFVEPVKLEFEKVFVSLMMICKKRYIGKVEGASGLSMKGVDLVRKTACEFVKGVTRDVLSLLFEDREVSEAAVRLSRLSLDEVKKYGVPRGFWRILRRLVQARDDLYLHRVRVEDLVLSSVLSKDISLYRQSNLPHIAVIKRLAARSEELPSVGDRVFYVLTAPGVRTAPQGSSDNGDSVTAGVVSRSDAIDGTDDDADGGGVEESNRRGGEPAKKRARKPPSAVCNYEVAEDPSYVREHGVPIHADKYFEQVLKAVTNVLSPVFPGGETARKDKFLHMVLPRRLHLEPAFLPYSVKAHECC
Experimental: Human cytomegalovirus and varicella zoster virus DNA polymerases were expressed via baculovirus vector in SF21 cells and purified. Heterodimeric nucleic acid substrate used in the herpesvirus polymerase reactions was generated by annealing a 59-mer template to a 17-mer digoxigenin-labeled primer. Polymerase (HCMV final concentration of 0.2 nM; VZV final concentration of 0.4 nM) was combined with an inhibitor compound or DMSO in assay buffer (10 mM HEPES, pH 7.5, 25 mM KCl, 25 mM NaCl, 5 mM MgCl2, 5% glycerol, 0.67 mg/ml bovine serum albuminutes, and 1 mM tris(2-carboxyethyl)phosphine), and this mixture was pre-incubated for 30 minutes at room temperature in 384-well microtiter plates. The polymerization reaction was initiated by the addition of template/primer substrate (final concentration: 1.6 nM), and dNTPs (final concentration: 24 nM dCTP, 24 nMdGTP, 16 nM dATP, 16 nM dTTP, and 0.8 nM biotin-dUTP). After 60 minutes incubation at 37° C., reactions were terminated with quench buffer (25 mM HEPES pH 7.5, 100 mM NaCl, 0.25% Tween-20, 12 mM EDTA, and 1 mg/ml bovine serum albumin). Incorporation of biotinylated UTP was detected with 2.5-ug/ml anti-DIG AlphaLISA acceptor beads and 5-10 ug/ml streptavidin AlphaLISA donor beads (Perkin Elmer). Compound effects were normalized to the window defined by the controls (DMSO only and pre-quenched wells) and were fit using a 4-parameter algorithm to report an IC50.

HCMV Strain AD169 = experiment: Viral qPCR assay, HCMV in MRC-5 cells; type: cell-based, Human cytomegalovirus; settings: read-out: CMV MRC5 Cell (EC50)
Experimental: as §1
as §1, with “gene” for “gene and of the cellular control, PPIA (Thermo Fisher Assay ID=Hs04194521_s1),”, “in” for “in separate”, “Compound effects on viral” for “Viral”, “number” for “numbers were normalized by cellular control copy number, and compound effects”
HCMV: Strain AD169 Street was assayed in MRC-5 cells and was used at 0.05-0.1 pfu/cell. The assays were performed in either growth media or in the same media with 50% fetal bovine serum. Primer-probe set was Thermo Fisher Assay ID=AIFATFK.

[2] = Human alphaherpesvirus 1, MRC5, 72 h
[3] = Human alphaherpesvirus 3, MRC5, 72 h
[4] = Human alphaherpesvirus 2, MRC5, 72 h
[5] = Human betaherpesvirus 5, AD169, MRC5, 72 h

| IC50 [1] | SMILES | EC50 (HSV-1 Strain F; ~72 hrs) | IC50 (VZV; ~72 hrs) | EC50 (HSV2; ~72 hrs) | EC50 (HCMV Strain AD169; MRC5 cells, ~72 hrs) | EC50 (HSV-1 Strain F; [2]) | IC50 (VZV; [3]) | EC50 (HSV2; [4]) | EC50 (HCMV Strain AD169; [5]) |
| --- | --- | --- | --- | --- | --- | --- | --- | --- | --- |
| 141 nM | Cn1nc(C(=O)NCc2ccc(Cl)cc2)c2c1C1(CCC1)N(C[C@H]1CCC(=O)N1)C2 [Compound 124] | 3360 nM | 2160 nM | 2350 nM | 581 nM | – | – | – | – |
| 20.9 nM | Cc1nc(-n2nc(C(=O)NCc3ccc(Cl)cc3)c3c2CN(C[C@H]2CCC(=O)N2)C3)sc1C [Compound 10] | – | – | – | – | 189 nM | 172 nM | 124 nM | 434 nM |
| 18.5 nM | O=C1CC[C@H](CN2Cc3c(C(=O)NCc4ccc(Cl)cc4)nn(-c4ncc5cnccn45)c3C2)N1 [Compound 8] | 299 nM | 479 nM | 226 nM | 678 nM | – | – | – | – |
| 252 nM | Cn1nc(C(=O)NCc2ccc(Cl)cc2)c2c1CN(C[C@H]1CC(F)C(=O)N1)C2 (some centres unmarked) [Compound 78] | – | – | – | – | 3030 nM | 2870 nM | 2220 nM | 2880 nM |
| 115 nM | Cn1ccnc1-n1nc(C(=O)NCc2ccc(Cl)cc2)c2c1CN(C[C@H]1CCC(=O)N1)C2 [Compound 20] | – | – | – | – | 449 nM | 309 nM | 143 nM | 448 nM |
| 9.81 nM | CC(C1CCC(=O)N1)N1Cc2c(C(=O)NCc3ccc(Cl)cc3)nn(C)c2C1 (single isomer, unassigned) [Compound 2] | 270 nM | 182 nM | 119 nM | 176 nM | – | – | – | – |
| 52.5 nM | O=C1CC[C@H](CN2Cc3c(C(=O)NCc4ccc(Cl)cc4)nn(C4CCOC4)c3C2)N1 (single isomer, unassigned) [Compound 33] | 1560 nM | 1960 nM | 1410 nM | 628 nM | – | – | – | – |
| 235 nM | CC(C1CCC(=O)N1)N1Cc2c(C(=O)NCc3ccc(Cl)cc3)nn(C)c2C1 (single isomer, unassigned) [Compound 1] | 9980 nM | 7530 nM | 6740 nM | 4480 nM | – | – | – | – |
| 11.2 nM | CC(C1CC(F)C(=O)N1)N1Cc2c(C(=O)NCc3ccc(Cl)cc3)nn(C)c2C1 (single isomer, unassigned) [Compound 73] | – | – | – | – | 614 nM | 534 nM | 464 nM | 134 nM |
| 60.3 nM | Cn1nc(C(=O)NCc2ccc(Cl)cc2)c2c1CN(C[C@@H]1CC(F)(F)C(=O)N1)C2 [Compound 82] | – | – | – | – | 2880 nM | 1450 nM | 1020 nM | 250 nM |
| 25.8 nM | O=C1CC[C@H](CN2Cc3c(C(=O)NCc4ccc(Cl)cc4)nn(-c4ccccn4)c3C2)N1 [Compound 13] | – | – | – | – | 284 nM | 207 nM | 74.6 nM | 547 nM |
| 37.8 nM | O=C1CC[C@@H](CN2Cc3c(C(=O)NCc4ccc(Cl)cc4)nn(C(F)F)c3C2)N1 [Compound 45] | – | – | – | – | 1990 nM | 1030 nM | 1040 nM | 798 nM |
| 71.1 nM | O=C1CC[C@H](CN2Cc3c(C(=O)NCc4ccc(Cl)cc4)nn(-c4ncc5ccccc5n4)c3C2)N1 [Compound 18] | – | – | – | – | 229 nM | 368 nM | 108 nM | 555 nM |
| 69.6 nM | Cn1nc(C(=O)NCc2ccc(Cl)cc2)c2c1CN(C[C@@H]1CC(F)C(=O)N1)C2 (some centres unmarked) [Compound 79] | – | – | – | – | 1180 nM | 1170 nM | 935 nM | 232 nM |
| 51.6 nM | O=C1CC[C@H](CN2Cc3c(C(=O)NCc4ccc(Cl)cc4)nn(C4CCOC4)c3C2)N1 (single isomer, unassigned) [Compound 34] | 790 nM | 2050 nM | 1850 nM | 1800 nM | – | – | – | – |
| 31.7 nM | CCC(C1CCC(=O)N1)N1Cc2c(C(=O)NCc3ccc(Cl)cc3)nn(C)c2C1 (centres unmarked) [Compound 90] | 1320 nM | 1230 nM | 1180 nM | 212 nM | – | – | – | – |
